Key:
advanced prostate cancer = advanced prostate cancer patients with DNA repair gene mutations; phase II clinical trial; cited from earlier work
recurrent ovarian cancer = experiment: Phase I clinical trial of compound A alone in recurrent chemotherapy-resistant ovarian cancer; type: in vivo, human; details: daily dose of 120 mg
Description: Objective response rate (ORR) refers to the proportion of patients whose tumor shrinks to a certain extent and remains for a certain period of time, including cases of CR and PR. The response evaluation criteria in solid tumors (RECIST 1.1 criteria) are employed to assess tumor objective response. The subject must have measurable tumor lesions at baseline. The efficacy assessment criteria are classified into complete response (CR), partial response (PR), stable disease (SD), and progressive disease (PD) according to the RECIST 1.1 criteria.
Disease control rate (DCR) refers to the percentage of confirmed cases of complete response, partial response and stable disease (≥eight weeks) in patients with evaluable efficacy.
In the phase I clinical trial, the dose of compound A was 120 mg/d and above. 23 patients with recurrent ovarian cancer diagnosed by histology or cytology, who had received standard treatment failure, were enrolled. These patients had been subjected to at least second-line systemic chemotherapy during the recurrence and metastasis stage of ovarian cancer. The chemotherapy regimen was a platinum-based chemotherapy regimen. These patients were platinum-based treatment-resistant, or were intolerant to the chemotherapy toxicity during the treatment.
Compound A: the initial dose was 10 mg, 20 mg, 40 mg, 60 mg, 80 mg, 100 mg or 150 mg, administrated orally twice a day; or 120 mg or 160 mg, administrated orally once a day.

[1] = platinum-resistant ovarian cancer without BRCA mutations, 13 cases
[2] = recurrent platinum-resistant ovarian cancer, 22 evaluable cases out of 23

Compound | response (advanced prostate cancer) [%] | disease control rate (DCR) (recurrent ovarian cancer; [1]) [%] | objective response rate (ORR) (recurrent ovarian cancer; [1]) [%] | disease control rate (DCR) (recurrent ovarian cancer; [2]) [%] | objective response rate (ORR) (recurrent ovarian cancer; [2]) [%]
O=C(c1cc(Cc2n[nH]c(=O)c3ccccc23)ccc1F)N1CCN(C(=O)C2CC2)CC1 [Olaparib] | 88 |  |  |  | 
O=C(c1cc(Cc2n[nH]c(=O)c3ccccc23)ccc1F)N1CCn2nc(C(F)(F)F)nc2C1 [compound A] |  | 84.6 | 15.4 | 81.8 | 18.2

Reference: patent US20200281923A1, “USE OF PARP INHIBITOR IN TREATING CHEMOTHERAPY-RESISTANT OVARIAN CANCER OR BREAST CANCER” (JIANGSU HENGRUI MEDICINE CO., LTD., priority 2017, published 2020)
